Columns and labels:
[1] = Circulating half life of VIP in vivo; settings: read-out: Circulating t½ in vivo (converted)
[2] = α-Helicity of VIP by circular dichroism; assay type: physicochemical
Method: (§1) • Lipid:peptide saturation ratio and number of peptide/micelle were determined via fluorescent spectroscopy where 10 μM of VIP was incubuated with varying concentration of SSM or SSMM to achieve lipid:peptide molar ratio ranging from 0 to 40. The data was then fitted into a simple, rectangular hyperbola curve using SigmaPlot® to determine lipid:peptide saturation ratio. The maximum number of peptide molecules that could interact with each micelle was calculated from the aggregation number of lipid monomers per micelle (˜90) for both SSM and SSMM (Ashok B, et al. J Pharm Sci 2004; 93: 2476-2487). • α-helicity was determined by CD using 20 μM of VIP in 5 mM of SSM or SSMM (lipid:VIP ratio of 250:1). The same samples were used for particle size measurement. • Fluorescent anisotropy was conducted using 100 μM of VIP in 4.5 mM of SSM or SSMM (lipid:VIP ratio of 45:1) which is close to the lipid:peptide saturation ratio. The measurements were done using Perkin Elmer luminescence spectrometer LS50B.

[3] = Fluorescent anisotropy of VIP; assay type: physicochemical; settings: 100 μM VIP, […] SSM or SSMM (lipid:VIP 45:1)
Method: as §1

[4] = Stability of VIP and VIP-SSM in human serum; settings: buffer or solvent
Method: Since VIP is highly susceptible to enzymatic hydrolysis in serum, we have also tested serum stability of SSM-VIP formulation in a surrogate in vitro system. Briefly, DSPE-PEG2000 (5 mM) was weighed and hydrated (10 mM HEPES buffer, pH 7.4). VIP (5 nmol) was added to preformed SSM and incubated for 2 h at 25° C. to form VIP-SSM. Formulation was then incubated in human serum (25, 50% v/v). Sample aliquots were removed and analyzed on 0, 1, 3, 5 and 7 days following storage at 37° C. These samples were analyzed for the % of intact VIP associated with SSM following separation of unbound VIP from SSM.

CC[C@H](C)[C@H](NC(=O)[C@H](CO)NC(=O)[C@H](CC(N)=O)NC(=O)[C@H](CC(C)C)NC(=O)[C@H](Cc1ccc(O)cc1)NC(=O)[C@H](CCCCN)NC(=O)[C@H](CCCCN)NC(=O)[C@@H](NC(=O)[C@H](C)NC(=O)[C@H](CCSC)NC(=O)[C@H](CCC(N)=O)NC(=O)[C@H](CCCCN)NC(=O)[C@H](CCCNC(=N)N)NC(=O)[C@H](CC(C)C)NC(=O)[C@H](CCCNC(=N)N)NC(=O)[C@@H](NC(=O)[C@H](Cc1ccc(O)cc1)NC(=O)[C@H](CC(N)=O)NC(=O)[C@H](CC(=O)O)NC(=O)[C@@H](NC(=O)[C@H](Cc1ccccc1)NC(=O)[C@@H](NC(=O)[C@H](C)NC(=O)[C@H](CC(=O)O)NC(=O)[C@H](CO)NC(=O)[C@@H](N)Cc1c[nH]cn1)C(C)C)[C@@H](C)O)[C@@H](C)O)C(C)C)C(=O)N[C@@H](CC(C)C)C(=O)N[C@@H](CC(N)=O)C(N)=O [VIP in saline, vasoactive intestinal peptide]
half-life [1]: 18 min | % α-Helix of VIP [2]: 5 ± 1% | Anisotropy [3]: 0.052 ± 0.004 | metabolised at 24 h [4]: ~65%

Reference: US20100062969A1, “HYDROPHILIC POLYMER-CONJUGATED LIPIDS FOR PEPTIDE AND PROTEIN FOLDING DISORDERS” (priority 2006, published 2010)
